Here are results for five molecules from patent US20090062304A1, “Benzimidazole derivatives and their use for modulating the gaba-alpha receptor complex” (priority 2005, published 2009).

Series [1] deals with benzodiazepine modulatory unit of the GABAA receptor complex. Briefly: In vitro inhibition of 3H-flunitrazepam (3H-FNM) binding. The conditions noted are these: inhibition of specific 3H-FNM (1 nM) binding, rat cerebral cortex membranes, 40 min at 2° C. As for the experimental part: In Vitro Inhibition of ^3H-flunitrazepam (^3H-FNM) Binding
The GABA recognition site and the benzodiazepine modulatory unit can selectively be labelled with ^3H-flunitrazepam.
Preparations are performed at 0-4° C. unless otherwise indicated. Cerebral cortex from male Wistar rats (150-200 g) is homogenised for 5-10 sec in 20 ml Tris-HCl (30 mM, pH 7.4) using an Ultra-Turrax homogeniser. The suspension is centrifuged at 27,000×g for 15 min and the pellet is washed three times with buffer (centrifuged at 27,000×g for 10 min). The washed pellet is homogenized in 20 ml of buffer and incubated on a water bath (37° C.) for 30 min to remove endogenous GABA and then centrifuged for 10 min at 27,000×g. The pellet is then homogenized in buffer and centrifuged for 10 min at 27,000×g. The final pellet is resuspended in 30 ml buffer and the preparation is frozen and stored at −20° C.
The membrane preparation is thawed and centrifuged at 2° C. for 10 min at 27,000×g. The pellet is washed twice with 20 ml 50 mM Tris-citrate, pH 7.1 using an Ultra-Turrax homogeniser and centrifuged for 10 min at 27,000×g. The final pellet is resuspended in 50 mM Tris-citrate, pH 7.1 (500 ml buffer per g of original tissue), and then used for binding assays. Aliquots of 0.5 ml tissue are added to 25 μl of test solution and 25 μl of ^3H-FNM (1 nM, final concentration), mixed and incubated for 40 min at 2° C. Non-specific binding is determined using Clonazepam (1 μM, final concentration). After incubation the samples are added 5 ml of ice-cold buffer and poured directly onto Whatman GF/C glass fibre filters under suction and immediately washed with 5 ml ice-cold buffer. The amount of radioactivity on the filters is determined by conventional liquid scintillation counting. Specific binding is total binding minus non-specific binding.
25-75% inhibition of specific binding must be obtained, before calculation of an IC50.
The test value will be given as IC50 (the concentration (μM) of the test substance which inhibits the specific binding of ^3H-FNM by 50%).
Co is specific binding in control assays, and […]

A word on the melting point: it is the temperature of the solid-liquid transition. By IC50 is commonly meant the concentration needed to halve the response being measured. Low values mean higher potency, high ones lower potency.

For `COc1ccc2c(c1)ncn2-c1cccc(N2CCN(C(C)=O)CC2)c1`, the melting point turned out to be 157 °C. Still for that read-out and setting: the value for `CC(=O)N1CCN(c2cccc(-n3cnc4cc(C(F)(F)F)ccc43)c2)CC1` was 143 to 146 °C. For `CC(=O)N1CCN(c2cccc(-n3cnc4cc(C(C)C)ccc43)c2)CC1` [Compound 38, 1-{4-[3-(5-Isopropyl-benzoimidazol-1-yl)-phenyl]-piperazin-1-yl}-ethanone], the IC50 in series [1] amounted to 5 nM. Regarding `CC(=O)N1CCN(c2cccc(-n3cnc4cc(C)ccc43)c2)CC1` [Compound 23, 1-{4-[3-(5-Methyl-benzoimidazol-1-yl)-phenyl]-piperazin-1-yl}-ethanone], the melting point fell in the range of 145 to 146 °C. The IC50 in series [1] was determined as 2.6 nM. On the same counts, the results for `CC(=O)N1CCN(c2cccc(-n3cnc4cc(C(C)O)ccc43)c2)CC1` (stereo not shown) [Compound 33, 1-(4-{3-[5-(1-Hydroxy-ethyl)-benzoimidazol-1-yl]-phenyl}-piperazin-1-yl)-ethanone] are 126 °C and 9.6 nM.
